Data from patent US5364882A, “Oxysulfonyl urea ACAT inhibitors” (Warner-Lambert Company, priority 1992, dated 1994).

What was measured:
[1] = APCC in vivo screen: blood cholesterol in rats on high fat, high cholesterol diet with 0.5% cholic acid; design: species or system male Sprague-Dawley rats; conditions: 30 mg/kg single dose at 4 PM, high cholesterol diet overnight, blood at 8 AM, vehicle CMC/Tween
Method: In one in vivo screen designated APCC, male Sprague-Dawley rats (200 to 225 g) were randomly divided into treatment groups and dosed at 4 PM with either vehicle (CMC/Tween) or suspensions of compounds in vehicle (30 mg/kg). The normal chow diet was then replaced with a high fat, high cholesterol diet with 0.5% cholic acid. The rats consumed this diet ad libitum during the night and were sacrificed at 8 AM to obtain blood samples for cholesterol analysis using standard procedures. Statistical differences between mean cholesterol values for the same vehicle were determined using analysis of variance followed by Fisher's least significant test.

[2] = molecular target: T1, acyl-CoA: cholesterol acyltransferase (ACAT) (Oryctolagus cuniculus, UniProt G1SFD9); experiment: In vitro ACAT inhibition (IAI): formation of radiolabeled cholesterol oleate from radiolabeled oleic acid in rabbit intestinal microsomes; format: biochemical; conditions: concentration required to inhibit enzyme activity by 50%
T1 sequence (G1SFD9 1-524): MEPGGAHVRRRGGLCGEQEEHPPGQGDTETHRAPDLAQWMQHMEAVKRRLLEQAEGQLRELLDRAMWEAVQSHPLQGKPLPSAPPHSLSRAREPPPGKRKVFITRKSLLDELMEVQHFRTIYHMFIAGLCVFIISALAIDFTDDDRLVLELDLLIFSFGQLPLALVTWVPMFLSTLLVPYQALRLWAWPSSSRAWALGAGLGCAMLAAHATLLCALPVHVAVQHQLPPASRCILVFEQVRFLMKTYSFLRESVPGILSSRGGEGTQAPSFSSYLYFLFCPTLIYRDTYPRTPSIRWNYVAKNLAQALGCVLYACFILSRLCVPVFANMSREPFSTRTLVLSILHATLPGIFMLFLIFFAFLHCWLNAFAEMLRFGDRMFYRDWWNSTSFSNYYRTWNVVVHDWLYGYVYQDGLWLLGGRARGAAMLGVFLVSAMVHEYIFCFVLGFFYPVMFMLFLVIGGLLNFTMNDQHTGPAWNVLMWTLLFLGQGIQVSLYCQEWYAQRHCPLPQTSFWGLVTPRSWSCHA
Method: The ability of representative compounds of the present invention to inhibit ACAT was measured using an in vitro test more fully described in F. J. Field and R. G. Salone, Biochemica et Biophysica 712:557-570 (1982). The test assesses the ability of a test compound to inhibit the acylation of cholesterol by oleic acid by measuring the amount of radiolabeled cholesterol oleate formed from radiolabeled oleic acid in a tissue preparation containing rabbit intestinal microsomes.

Row | IC50 [2] [µM] | SMILES | % Change (mg/dl) in cholesterol [1] [%]
1 | – | CCCCCCCCCCCCOS(=O)(=O)NC(=O)Nc1c(C(C)C)cccc1C(C)C.[Na] | -58
2 | 8.7 | CCCCCCC(C)OS(=O)(=O)NC(=O)Nc1c(C(C)C)cccc1C(C)C (racemic) [Example 6, (±) 1-Methylheptyl [[[2,6-bis(1-methylethyl)phenyl]amino]carbonyl]sulfamate] | -43
3 | – | CCCCCCCCCCC(C)OS(=O)(=O)NC(=O)Nc1c(C(C)C)cccc1C(C)C (racemic) [Example 8, (±) 1-Methylundecyl [[[2,6-bis(1-methylethyl)phenyl]amino]carbonyl]sulfamate] | -68
4 | – | CCCCCCOS(=O)(=O)NC(=O)Nc1c(C(C)C)cccc1C(C)C [Example 1, Hexyl [[[2,6-bis(1-methylethyl)phenyl]amino]carbonyl]sulfamate] | -56
5 | – | CCCCCCCCCCCCCCCCCCOS(=O)(=O)NC(=O)Nc1c(C(C)C)cccc1C(C)C [Example 2, Octadecyl [[[2,6-bis(1-methylethyl)phenyl]amino]carbonyl]sulfamate] | -42
6 | – | CCCCCCCCCCCCOS(=O)(=O)NC(=O)Nc1c(C(C)C)cccc1C(C)C [Example 3, Dodecyl [[[2,6-bis(1-methylethyl)phenyl]amino]carbonyl]sulfamate] | -75
7 | > 10 | CCCCCCCCCCOS(=O)(=O)NC(=O)Nc1c(C(C)C)cccc1C(C)C [Example 5, Decyl [[[2,6-bis(1-methylethyl)phenyl]amino]carbonyl]sulfamate] | -31
8 | 35 | CC(C)c1cccc(C(C)C)c1NC(=O)NS(=O)(=O)Oc1c(C(C)C)cccc1C(C)C [Example 7, 2,6-bis(1-methylethyl)phenyl [[[2,6-bis (1-methylethyl)phenyl]amino]carbonyl]sulfamate] | -51
